The values below come from patent publication US20210355104A1, “ADENOSINE RECEPTOR BINDING COMPOUNDS” (Nikang Therapeuticsm Inc., priority 2018, published 2021).

For assay [1], the system named is p-CREB (phosphorylated cAMP response-element binding protein) in human whole blood. In words: p-CREB assay in human whole blood by flow cytometry (NECA stimulation, CD4 staining). The class given is cell-based. Conditions: Homo sapiens. Here is the method:
Assay protocol for p-CREB (phosphorylated cAMP response-element binding protein) in human whole blood by flow cytometry
Fresh human whole blood (Biological Specialty Corporation) was added at 100 ul per wellinto a 96-well plate and treated with test compounds (Serial dilutions of 1:3 with starting concentration at 30 uM, 11 concentrations total, in the presence of adenosine deaminase) for one hour at room temperature on a plate shaker. Then 10 ul of 10× NECA (50 uM stock in PBS) and 10 ul of 10 × Rolipram (50 uM stock in PBS) were added, with designated wells for unstimulated (Rolipram+DMSO) and stimulated (Rolipram+NECA+DMSO) conditions. The plates were mixed well and incubated at room temperature for 30 min on a plate shaker. 1× lyse/Fix buffer (5× stock, BD #558049) was warmed to 37° in a water bath. 1200 ul of pre-warmed 1× lyse/Fix buffer was then added to the plate, which was then sealed and mixed by inverting the plate a few times. The plate was then incubated for 30 min at 37° in a water bath. After incubation, the plate was centrifuged at 1600 rpm for 5 min and the supernatant was decanted, then 1200 ul PBS was added and the plate was mixed by inverting a few times followed by centrifuging at 1600 rpm for 5 min and again decanting the supernatant. Then, 200 ul FIX PERM buffer II (BD #558052) was added and the plate was mixed well, then kept on ice for 45 min After spinning the plate at 1600 rpm for 5 min the supernatant was again decanted. Then was added 200 ul staining buffer (BD #554657), and the plate was mixed well and spun at 1600 rpm for 5 min, then the supernatant was again decanted. 200 ul staining buffer was added, the plate was mixed well and the plate was sealed at this step for storage at 4° overnight or until staining. Before staining, the plate was spun at 1600 rpm for 5 min and the supernatant was again decanted. Antibody mix in staining buffer was prepared (75 ul/well, 1:50 dilution for p-CREB antibody from Cell Signaling Tech #14001S, 1:200 dilution for CD4 antibody from BD #566320) and the cells were resuspended in the above antibody mix solution. After mixing well, the plate was incubated (shielded from light) at room temperature for two hours on a plate shaker. It was then spun at 1600 rpm for 5 min and the supernatant was decanted. 200 ul staining buffer was then added to wash cells, and the plate was then mixed by shaking or pipetting. The wash step was repeated at least one more time, and after the final wash, cells were resusptended in 200 ul staining buffer in U bottom plate for flow cytometry analysis.
Background: Flow cytometry measures light scatter and fluorescence of single cells or particles in a stream.

Assay [2] addresses T1, Adenosine A2A receptor (Homo sapiens, UniProt P29274). Briefly: Adenosine A2A receptor competitive binding assay (Tag-lite HTRF). Conditions: Tag-lite adenosine A2A receptor ligand binding. The method, boiled down: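 Tag-lite HTRF competition: donor-labelled cells expressing human A2A were mixed with serially diluted compounds (DMSO 0.6% in dilutions) and red fluorescent A2A antagonist ligand (60 nM stock). Incubated 2 h at room temperature before HTRF readout.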

In assay [3] the target is T1, Adenosine A2A receptor. In words: cAMP assay in 293A cells stably expressing the adenosine A2A receptor (CGS21680 stimulation, HTRF). The class given is cell-based. On the set-up: expressed in transfected cells; host or cells: 293A cells (Invitrogen, Cat# R705-07) infected with A2A-expressing lentivirus (custom packaged by Biosettia), puromycin selected. Conditions: 293A-A2AR cells, 0.1% BSA. On the technique in general: Changes in cAMP serve as a functional read-out for many G protein-coupled receptors.

[4] abbreviates: 2 h room temperature, values separated by / are repeat determinations.
The mark [5] stands for this setting: 8 nM CGS, values separated by / are repeat determinations, read-out: cAMP (nM) 0.1% BSA, 8 nM CGS.
Where [6] appears, read: 1 uM CGS, values separated by / are repeat determinations, read-out: cAMP (nM) 0.1% BSA, 1 uM CGS.

Molecules are shown by their SMILES. Several values for one entry are separate records, joined by “and”; a condition that tells them apart may be missing. Identical values can stand only once.

T1 sequence (P29274 whole entry): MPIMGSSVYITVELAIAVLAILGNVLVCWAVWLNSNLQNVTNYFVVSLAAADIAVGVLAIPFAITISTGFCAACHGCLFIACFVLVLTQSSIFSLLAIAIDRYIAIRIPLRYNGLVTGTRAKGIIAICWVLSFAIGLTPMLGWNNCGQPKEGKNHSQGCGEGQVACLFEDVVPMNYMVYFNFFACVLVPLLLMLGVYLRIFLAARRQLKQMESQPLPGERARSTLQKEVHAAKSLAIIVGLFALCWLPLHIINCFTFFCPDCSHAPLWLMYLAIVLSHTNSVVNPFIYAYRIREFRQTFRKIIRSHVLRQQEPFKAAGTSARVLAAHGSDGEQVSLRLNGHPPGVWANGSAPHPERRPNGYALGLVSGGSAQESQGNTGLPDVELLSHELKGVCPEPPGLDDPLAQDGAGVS

In turn, `Cc1cc(-c2c(OCc3ccnc(N4CC(C)(O)C4)n3)nc(N)nc2-c2ccc(F)cc2)cc(C(F)F)n1` [Example 266, 1-(4-(((2-amino-5-(2-(difluoromethyl)-6-methylpyridin-4-yl)-6-(4-fluorophenyl)pyrimidin-4-yl)oxy)methyl)pyrimidin-2-yl)-3-methylazetidin-3-ol] gave an IC50 in assay [1] of 4910 nM.
The compound `Cc1cc(-c2c(OCc3ccn(CC(C)(C)C(=O)O)n3)nc(N)nc2-c2ccc(F)cc2)cc(C(F)F)n1` [Example 267, 3-(3-(((2-amino-5-(2-(difluoromethyl)-6-methylpyridin-4-yl)-6-(4-fluorophenyl)pyrimidin-4-yl)oxy)methyl)-1H-pyrazol-1-yl)-2,2-dimethylpropanoic acid] returned an IC50 in assay [1] of 5580 nM.
`Cc1cc(-c2c(OCc3cccc(=O)n3C(C)C)nc(N)nc2-c2ccc(F)cc2)cc(C(F)F)n1` [Example 186, 6-(((2-amino-5-(2-(difluoromethyl)-6-methylpyridin-4-yl)-6-(4-fluorophenyl)pyrimidin-4-yl)oxy)methyl)-1-isopropylpyridin-2(1H)-one]: the IC50 on Adenosine A2A receptor [2] (setting [4]) amounted to 2.6 nM; on Adenosine A2A receptor [3] (setting [5]), 4.1 nM; at Adenosine A2A receptor [3] (setting [6]), 10500 nM.
In the case of `Cc1cc(-c2c(OCc3ccncn3)nc(N)nc2-c2ccc(F)cc2)cc(C(F)F)n1` [Example 218, 5-(2-(difluoromethyl)-6-methylpyridin-4-yl)-4-(4-fluorophenyl)-6-(pyrimidin-4-ylmethoxy)pyrimidin-2-amine], the IC50 at Adenosine A2A receptor [2] (HTRF) was 1.7 nM; at Adenosine A2A receptor [3] (1 uM CGS, read-out: cAMP (nM) 0.1% BSA, 1 uM CGS), 76 nM and 48 nM.
With `Cc1cc(-c2c(OCCN(C)c3ccc(C#N)cn3)nc(N)nc2-c2ccc(F)cc2)cc(C(F)F)n1` [Example 156, 6-((2-((2-amino-5-(2-(difluoromethyl)-6-methylpyridin-4-yl)-6-(4-fluorophenyl)pyrimidin-4-yl)oxy)ethyl)(methyl)amino)nicotinonitrile], the IC50 was found to be 84 nM on Adenosine A2A receptor [2] (setting [4]) and 57 nM on Adenosine A2A receptor [3] (setting [5]).
Turning to `CCN(C(=O)COc1nc(N)nc(-c2ccc(F)cc2)c1-c1cc(C)nc(C(F)F)c1)c1ccccc1` [Example 90], the IC50 on Adenosine A2A receptor [2] (setting [4]) was determined as 23 nM; at Adenosine A2A receptor [3] (setting [5]), 6.8 nM.
With `CCN(CCO)C(=O)COc1nc(N)nc(-c2ccc(F)cc2)c1-c1cc(C)nc(C(F)F)c1` [Example 89, 2-((2-amino-5-(2-(difluoromethyl)-6-methylpyridin-4-yl)-6-(4-fluorophenyl)pyrimidin-4-yl)oxy)-N-ethyl-N-(2-hydroxyethyl)acetamide], the IC50 at Adenosine A2A receptor [2] (setting [4]) turned out to be 6.1 nM; at Adenosine A2A receptor [3] (setting [5]), 2.2 nM.
With `Cc1cc(-c2c(O[C@H](C)CO)nc(N)nc2-c2ccc(F)cc2)cc(C(F)F)n1` [Example 73, (R)-2-((2-amino-5-(2-(difluoromethyl)-6-methylpyridin-4-yl)-6-(4-fluorophenyl)pyrimidin-4-yl)oxy)propan-1-ol], the IC50 at Adenosine A2A receptor [2] (setting [4]) was determined as 25 nM; at Adenosine A2A receptor [3] (setting [5]), 3.6 nM.
The matching figures for `CCN(CC)C(=O)COc1nc(N)nc(-c2ccccc2)c1-c1cc(C)nc(C(F)(F)CC)c1` [Example 17, 2-((2-amino-5-(2-(1,1-difluoropropyl)-6-methylpyridin-4-yl)-6-phenylpyrimidin-4-yl)oxy)-N,N-diethylacetamide]: 9.01 nM and 7.5 nM.
Regarding `Cc1cc(-c2c(OCc3nnn(C(C)C)n3)nc(N)nc2-c2ccc(F)cc2)cc(C(F)F)n1` [Example 185, 5-(2-(difluoromethyl)-6-methylpyridin-4-yl)-4-(4-fluorophenyl)-6-((2-isopropyl-2H-tetrazol-5-yl)methoxy)pyrimidin-2-amine], the IC50 at Adenosine A2A receptor [2] (setting [4]) was 7.1 nM; on Adenosine A2A receptor [3] (setting [6]) it was 6 nM and 25 nM.
As to `CCn1ccnc1COc1nc(N)nc(-c2ccc(F)cc2)c1-c1cc(C)nc(C(F)F)c1` [Example 105, 5-(2-(difluoromethyl)-6-methylpyridin-4-yl)-4-((1-ethyl-1H-imidazol-2-yl)methoxy)-6-(4-fluorophenyl)pyrimidin-2-amine], the IC50 on Adenosine A2A receptor [2] (setting [4]) was 0.17 nM and 1 nM; on Adenosine A2A receptor [3] (setting [5]), 0.44 nM and 0.38 nM; at Adenosine A2A receptor [3] (setting [6]), 10 nM.
On to `Cc1cc(-c2c(OCCN(C)c3ccc(S(C)(=O)=O)cn3)nc(N)nc2-c2ccc(F)cc2)cc(C(F)F)n1` [Example 157, 5-(2-(difluoromethyl)-6-methylpyridin-4-yl)-4-(4-fluorophenyl)-6-(2-(methyl(5-(methylsulfonyl)pyridin-2-yl)amino)ethoxy)pyrimidin-2-amine], for which the IC50 on Adenosine A2A receptor [2] (setting [4]) was determined as 79 nM; at Adenosine A2A receptor [3] (setting [5]), 52 nM.
On to `CCNC(=O)N(CC)CCOc1nc(N)nc(-c2ccc(F)cc2)c1-c1cc(C)nc(C(F)F)c1` [Example 123, 1-(2-((2-amino-5-(2-(difluoromethyl)-6-methylpyridin-4-yl)-6-(4-fluorophenyl)pyrimidin-4-yl)oxy)ethyl)-1,3-diethylurea], for which the IC50 on Adenosine A2A receptor [2] (setting [4]) was 1.2 nM; on Adenosine A2A receptor [3] (setting [5]), 0.87 nM and 0.67 nM.
Consider `CNC(=O)OCCOc1nc(N)nc(-c2ccccc2)c1-c1cc(C)nc(C(F)(F)F)c1` [Example 144, 2-((2-amino-5-(2-methyl-6-(trifluoromethyl)pyridin-4-yl)-6-phenylpyrimidin-4-yl)oxy)ethyl methylcarbamate], for which the IC50 on Adenosine A2A receptor [2] (setting [4]) turned out to be 4.5 nM; at Adenosine A2A receptor [3] (setting [5]), 4.2 nM.
Regarding `Cc1cc(-c2c(OCc3nncn3C(C)C)nc(N)nc2-c2ccc(F)cc2)cc(C(F)F)n1` [Example 178, 5-(2-(difluoromethyl)-6-methylpyridin-4-yl)-4-(4-fluorophenyl)-6-((4-isopropyl-4H-1,2,4-triazol-3-yl)methoxy)pyrimidin-2-amine], the IC50 at Adenosine A2A receptor [2] (setting [4]) is 1.4 nM and 3.2 nM; on Adenosine A2A receptor [3] (setting [5]) it was 1.5 nM.
On to `Cc1cc(-c2c(OCCc3ccc(C(C)(C)O)cc3)nc(N)nc2-c2ccc(F)cc2)cc(C(F)F)n1` [Example 68, 2-(4-(2-((2-amino-5-(2-(difluoromethyl)-6-methylpyridin-4-yl)-6-(4-fluorophenyl)pyrimidin-4-yl)oxy)ethyl)phenyl)propan-2-ol], for which the values for the IC50 on Adenosine A2A receptor [2] (setting [4]) and at Adenosine A2A receptor [3] (setting [5]) were 22 nM and 2.7 nM, respectively.
The matching figures for `CCc1nn[nH]c1COc1nc(N)nc(-c2ccc(F)cc2)c1-c1cc(C)nc(C(F)F)c1` [Example 137, 5-(2-(difluoromethyl)-6-methylpyridin-4-yl)-4-((4-ethyl-1H-1,2,3-triazol-5-yl)methoxy)-6-(4-fluorophenyl)pyrimidin-2-amine]: 92 nM and 40 nM.
`Cc1cc(-c2c(OCc3nc(S(C)(=O)=O)cn3C(C)C)nc(N)nc2-c2ccc(F)cc2)cc(C(F)F)n1` [Example 211, 5-(2-(difluoromethyl)-6-methylpyridin-4-yl)-4-(4-fluorophenyl)-6-((1-isopropyl-4-(methylsulfonyl)-1H-imidazol-2-yl)methoxy)pyrimidin-2-amine]: the IC50 at Adenosine A2A receptor [2] (HTRF) turned out to be 47 nM; on Adenosine A2A receptor [3] (8 nM CGS, read-out: cAMP (nM) 0.1% BSA, 8 nM CGS), 7.3 nM.
With `Cc1cc(-c2c(OCCN(C)c3cc(OCCO)ccn3)nc(N)nc2-c2ccc(F)cc2)cc(C(F)F)n1` [Example 155, 2-((2-((2-((2-amino-5-(2-(difluoromethyl)-6-methylpyridin-4-yl)-6-(4-fluorophenyl)pyrimidin-4-yl)oxy)ethyl)(methyl)amino)pyridin-4-yl)oxy)ethan-1-ol], the IC50 on Adenosine A2A receptor [2] (setting [4]) is 24 nM; on Adenosine A2A receptor [3] (setting [5]), 5.4 nM.
